Values quoted from earlier work as cited in patent US6238865A, “Simple and efficient method to label and modify 3'-termini of RNA using DNA polymerase and a synthetic template with defined overhang nucleotides” (Chen; Guangtian, priority 1998, dated 2001).

Biological target: poly(A) polymerase (Saccharomyces cerevisiae, UniProt P29468)
Details: cited from Lingner et al., J. Biol. Chem. 266:8741-8746, 1991, read-out: Km for ATP

Chain of poly(A) polymerase (P29468 whole entry): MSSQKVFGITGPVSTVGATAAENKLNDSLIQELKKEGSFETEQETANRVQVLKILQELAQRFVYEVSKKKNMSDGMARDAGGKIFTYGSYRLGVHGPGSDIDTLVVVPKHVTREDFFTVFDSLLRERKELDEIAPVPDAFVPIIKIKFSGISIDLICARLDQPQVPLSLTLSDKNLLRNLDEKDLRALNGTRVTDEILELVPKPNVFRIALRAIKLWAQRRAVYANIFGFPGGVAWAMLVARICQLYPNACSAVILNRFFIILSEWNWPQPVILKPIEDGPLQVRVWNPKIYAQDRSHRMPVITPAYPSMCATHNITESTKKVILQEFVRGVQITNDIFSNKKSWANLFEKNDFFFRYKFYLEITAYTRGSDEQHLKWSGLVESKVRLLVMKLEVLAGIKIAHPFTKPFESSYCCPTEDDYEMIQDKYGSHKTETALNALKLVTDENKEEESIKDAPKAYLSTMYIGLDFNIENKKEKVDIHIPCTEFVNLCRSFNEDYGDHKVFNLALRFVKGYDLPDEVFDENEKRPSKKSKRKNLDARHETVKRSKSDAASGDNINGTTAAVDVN

**Q.** With `Nc1ncnc2c1ncn2[C@@H]1O[C@H](COP(=O)(O)OP(=O)(O)OP(=O)(O)O)[C@@H](O)[C@H]1O` [ATP] as the compound, how does the Km read?
**A.** 50 µM
